In the first assay the test system is HCV replicon. Description: microbe, parasite or virus in culture. Format: cell-based. As to conditions: Hepatitis C virus, 48 h, read-out: Replicon IC5Os. (In general: Replicon systems follow genome replication, usually without infectious particles.)
In the case of `CCOC(=O)Nc1cccc(-c2c(C#N)c3ccc(OC)cc3n2CC)c1` [Compound 294], the IC50 is less than 0.5 µM. As for `CCn1c(-c2cccc(NC(=O)OCC(C)C)c2)c(C#N)c2ccc(OC)cc21` [Compound 296], the IC50 was 0.5 to 2 µM. For `CCCOC(=O)Nc1cccc(-c2c(C#N)c3ccc(OC)cc3n2CC)c1` [Compound 297], the IC50 lay within 0.5 to 2 µM. As to `CCn1c(-c2cccc(NC(=O)OCCOC)c2)c(C#N)c2ccc(OC)cc21` [Compound 298], the IC50 was in the range of 0.5 to 2 µM. As for `C=CCOC(=O)Nc1cccc(-c2c(C#N)c3ccc(OC)cc3n2CC)c1` [Compound 299], the IC50 fell in the range of 0.5 to 2 µM.

In the case of `CCn1c(-c2cccc(NC(=O)OCCCCl)c2)c(C#N)c2ccc(OC)cc21` [Compound 301], the IC50 lay in the range of 0.5 to 2 µM.

Consider `CCn1c(-c2cccc(NC(=O)OCCF)c2)c(C#N)c2ccc(OC)cc21` [Compound 302], for which the IC50 was 0.5 to 2 µM. In the case of `CCn1c(-c2cccc(NC(=O)OCc3ccccc3)c2)c(C#N)c2ccc(OC)cc21` [Compound 304], the IC50 lay in the range of 0.5 to 2 µM.

Still in this assay, the particulars now being: Hepatitis C virus, 48 h, read-out: Replicon IC5Os μM.
Regarding `CCn1c(NC(=O)c2ccccc2)c(C#N)c2ccc(OC)cc21` [Compound 204], the IC50 is less than 0.5 µM.

On to `CCn1c(-c2ccc(OCCN3CC[C@H](O)C3)cc2)c(C#N)c2ccc(OC)cc21` [Compound 264], for which the IC50 fell in the range of 0.5 to 2 µM.

Staying with this assay, now noted: Replicon IC50 values are determined by firefly luciferase signal; bicistronic replicon, 2 days; read-out: Replicon IC5Os.
As for `CCn1c(C#Cc2ccc(NC(=O)CN)cc2)c(C#N)c2ccc(OC)cc21` [Compound 165], the IC50 was more than 2 µM.

`CCn1c(C#Cc2ccccc2N)c(C#N)c2ccc(OC)cc21` [Compound 169]: the IC50 lay within 0.5 to 2 µM. For `CCn1c(C#Cc2cccs2)c(C#N)c2ccc(OC)cc21` [Compound 170], the IC50 was in the range of 0.5 to 2 µM. With `CCn1c(C#Cc2ccsc2)c(C#N)c2ccc(OC)cc21` [Compound 171], the IC50 is 0.5 to 2 µM. For the compound `CCn1c(C#Cc2ccccn2)c(C#N)c2ccc(OC)cc21` [Compound 174], the IC50 was in the range of 0.5 to 2 µM. On the same count and under the same terms, the figure for `CCn1c(C#Cc2ccc(OC)cc2)c(C#N)c2cc(OC)ccc21` [Compound 177] is 0.5 to 2 µM.

As to `CCn1c(C#Cc2ccc(C(F)(F)F)cc2)c(C#N)c2cc(OC)ccc21` [Compound 178], the IC50 was more than 2 µM.

`CCn1cc(C#N)c2cc(C(F)(F)F)ccc21` [Compound 179]: the IC50 fell in the range of 0.5 to 2 µM. `CCn1c(-c2ccc(N(C)S(=O)(=O)CC)cc2)c(C#N)c2ccc(OC)cc21` [Compound 181]: the IC50 lay in the range of 0.5 to 2 µM. On to `CCn1c(C#Cc2cccc3ccccc23)c(C#N)c2ccc(O)cc21` [Compound 184], for which the IC50 was in the range of 0.5 to 2 µM. With `CCn1c(C#Cc2ccc(OC)cc2)c(C#N)c2ccc(O)cc21` [Compound 186], the IC50 lay in the range of 0.5 to 2 µM. As to `CCn1c(C#Cc2ccc(Cl)cc2)c(C#N)c2ccc(O)cc21` [Compound 187], the IC50 was in the range of 0.5 to 2 µM. Turning to `CCn1c(-c2ccc(NS(=O)(=O)CC)cc2)c(C#N)c2ccc(O)cc21` [Compound 190], the IC50 was in the range of 0.5 to 2 µM.

Consider `CCn1c(-c2ccc(N(C)S(C)(=O)=O)cc2)c(C#N)c2ccc(O)cc21` [Compound 191], for which the IC50 is more than 2 µM.

With `CCn1c(C#Cc2ccc(NC(=O)C3CCCC3)cc2)c(C#N)c2ccc(O)cc21` [Compound 195], the IC50 was 0.5 to 2 µM.

Consider `CCn1c(C#Cc2ccc(OC)cc2)c(C#N)c2ccc(C(F)(F)F)cc21` [Compound 199], for which the IC50 is more than 2 µM.

Consider `CCn1c(C#Cc2cccc(OC)c2)c(C#N)c2ccc(C(F)(F)F)cc21` [Compound 202], for which the IC50 lay within 0.5 to 2 µM. The same measure, in the same setting: the value for `CCn1c(NC(C)=O)c(C#N)c2ccc(OC)cc21` [Compound 203] was 0.5 to 2 µM; that for `CCn1c(C#Cc2cccc(NS(C)(=O)=O)c2)c(C#N)c2ccc(OC)cc21` [Compound 208] was 0.5 to 2 µM. As to `CCn1c(C#Cc2cccc(NS(=O)(=O)C(C)C)c2)c(C#N)c2ccc(OC)cc21` [Compound 210], the IC50 fell in the range of 0.5 to 2 µM. In the case of `CCn1c(C#Cc2cccc(NC(=O)C(C)(C)C)c2)c(C#N)c2ccc(OC)cc21` [Compound 212], the IC50 lay within 0.5 to 2 µM. Regarding `CCn1c(NC(=O)c2cccc(F)c2)c(C#N)c2ccc(OC)cc21` [Compound 214], the IC50 is less than 0.5 µM. As to `CCn1c(NC(=O)c2ccc(C#N)cc2)c(C#N)c2ccc(OC)cc21` [Compound 215], the IC50 lay within 0.5 to 2 µM. The same measure, in the same setting: the value for `CCn1c(C#Cc2cccc(N3CCNC3=O)c2)c(C#N)c2ccc(OC)cc21` [Compound 222] was 0.5 to 2 µM; that for `CCn1c(C#Cc2ccc(N)cc2)c(C#N)c2cc(OC)ccc21` [Compound 223] was 0.5 to 2 µM.

As for `CCn1c(C#Cc2ccc(NC(C)=O)cc2)c(C#N)c2cc(OC)ccc21` [Compound 224], the IC50 was 0.5 to 2 µM.

Regarding `CCC(=O)Nc1ccc(C#Cc2c(C#N)c3cc(OC)ccc3n2CC)cc1` [Compound 225], the IC50 is 0.5 to 2 µM. For the compound `CCn1c(C#Cc2ccc(NC(=O)COC)cc2)c(C#N)c2cc(OC)ccc21` [Compound 228], the IC50 is more than 2 µM. Same read-out and setting: the figure for `CCOc1ccc(-c2c(C#N)c3cc(OC)ccc3n2CC)cc1` [Compound 229] is more than 2 µM; for `COc1ccc2c(C#N)c(C#Cc3cccc4ccccc34)[nH]c2c1` [Compound 230] it is more than 2 µM; for `COc1ccc2c(C#N)c(C#Cc3cccc(O)c3)[nH]c2c1` [Compound 231] it is more than 2 µM. For `COc1ccc2c(C#N)c(C#Cc3cccc(Cl)c3)[nH]c2c1` [Compound 232], the IC50 was more than 2 µM. Take `COc1ccc2c(C#N)c(C#Cc3ccc(N)cc3)[nH]c2c1` [Compound 234]: the IC50 is more than 2 µM. As for `COc1ccc2c(C#N)c(C#Cc3ccc(N(C)C)cc3)[nH]c2c1` [Compound 235], the IC50 was in the range of 0.5 to 2 µM. Regarding `COc1ccc2c(C#N)c(C#Cc3ccc(C)cc3)[nH]c2c1` [Compound 236], the IC50 was more than 2 µM. With `COc1cccc(C#Cc2[nH]c3cc(OC)ccc3c2C#N)c1` [Compound 237], the IC50 is more than 2 µM. `COc1ccc2c(C#N)c(C#Cc3ccccc3)[nH]c2c1` [Compound 238]: the IC50 was more than 2 µM. Turning to `CCn1c(-c2ccc(N)cc2)c(C#N)c2cc(OC)ccc21` [Compound 239], the IC50 is more than 2 µM.

For the compound `CCn1c(-c2ccc(C(=O)OC)cc2)c(C#N)c2cc(OC)ccc21` [Compound 240], the IC50 is more than 2 µM.

In the case of `CCn1c(-c2ccc(NC(C)=O)cc2)c(C#N)c2cc(OC)ccc21` [Compound 242], the IC50 is more than 2 µM. In the case of `CCn1c(-c2ccc(C(=O)N3CCCC3)cc2)c(C#N)c2cc(OC)ccc21` [Compound 246], the IC50 was more than 2 µM.

For `CCn1c(-c2ccc(O)cc2)c(C#N)c2ccc(OC)cc21` [Compound 247], the IC50 is more than 2 µM. In the case of `CCn1c(-c2ccc(OCCO)cc2)c(C#N)c2ccc(OC)cc21` [Compound 249], the IC50 lay in the range of 0.5 to 2 µM. As for `CCn1c(-c2ccc(SC)cc2)c(C#N)c2ccc(OC)cc21` [Compound 250], the IC50 was more than 2 µM. For the compound `COc1ccc2c(C#N)c(-c3ccc4c(c3)OCO4)n(C)c2c1` [Compound 254], the IC50 was more than 2 µM. `CCn1c(-c2ccc(O)cc2)c(C#N)c2ccc(C(F)(F)F)cc21` [Compound 256]: the IC50 was more than 2 µM. `CCn1c(-c2ccc(N)cc2)c(C#N)c2ccc(C(F)(F)F)cc21` [Compound 257]: the IC50 is more than 2 µM. For `CCn1c(-c2cccc(N)c2)c(C#N)c2ccc(C(F)(F)F)cc21` [Compound 258], the IC50 was more than 2 µM. `CCn1c(-c2ccc(N(C)C)cc2)c(C#N)c2ccc(C(F)(F)F)cc21` [Compound 259]: the IC50 was more than 2 µM. In the case of `CCn1c(-c2ccc3c(c2)OCO3)c(C#N)c2ccc(C(F)(F)F)cc21` [Compound 260], the IC50 is more than 2 µM. Consider `CCn1c(-c2ccc(OCCN3CCN(C)CC3)cc2)c(C#N)c2ccc(OC)cc21` [Compound 263], for which the IC50 lay in the range of 0.5 to 2 µM. On the same count and under the same terms, the value for `CCOc1ccc2c(C#N)c(-c3ccc(C(=O)N4CCOCC4)cc3)n(CC)c2c1` [Compound 270] was more than 2 µM. The same measure, in the same setting: the value for `CCn1c(-c2ccc(C(=O)N3CCOCC3)cc2)c(C#N)c2ccc(OC(C)C)cc21` [Compound 271] was 0.5 to 2 µM.

As to `CCn1c(-c2ccc(NS(=O)(=O)C3CC3)cc2)c(C#N)c2ccc(OC)cc21` [Compound 272], the IC50 was 0.5 to 2 µM. On to `CCn1c(-c2ccc(NS(=O)(=O)CCl)cc2)c(C#N)c2ccc(OC)cc21` [Compound 273], for which the IC50 was more than 2 µM. Regarding `CCn1c(-c2ccc(S(=O)(=O)N(C)C)cc2)c(C#N)c2ccc(OC)cc21` [Compound 275], the IC50 is more than 2 µM. The same measure, in the same setting: the figure for `CCn1c(-c2ccc(S(=O)(=O)N3CCOCC3)cc2)c(C#N)c2ccc(OC)cc21` [Compound 276] is more than 2 µM. The same measure, in the same setting: the figure for `CCn1c(-c2ccc(S(=O)(=O)NC)cc2)c(C#N)c2ccc(OC)cc21` [Compound 277] is more than 2 µM.

In the case of `CCn1c(-c2ccc(S(N)(=O)=O)cc2)c(C#N)c2ccc(OC)cc21` [Compound 278], the IC50 was more than 2 µM.

As for `CCn1c(-c2cc3ccccc3o2)c(C#N)c2ccc(OC)cc21` [Compound 282], the IC50 was more than 2 µM. The same measure, in the same setting: the figure for `CCn1c(-c2ccc(-c3ccccc3)cc2)c(C#N)c2ccc(OC)cc21` [Compound 283] is more than 2 µM; for `CCn1c(-c2cc3ccccc3s2)c(C#N)c2ccc(OC)cc21` [Compound 286] it is 0.5 to 2 µM; for `CCn1c(-c2cccc(NS(=O)(=O)CC)c2)c(C#N)c2ccc(OC)cc21` [Compound 287] it is more than 2 µM. For the compound `CCn1c(-c2cccc(NS(=O)(=O)CCCCl)c2)c(C#N)c2ccc(OC)cc21` [Compound 289], the IC50 is more than 2 µM. Take `CCn1c(-c2cccc(C(=O)NCCN3CCOCC3)c2)c(C#N)c2ccc(OC)cc21` [Compound 290]: the IC50 was more than 2 µM. On to `CCn1c(-c2cccc(C(N)=O)c2)c(C#N)c2ccc(OC)cc21` [Compound 291], for which the IC50 is more than 2 µM. With `CCNC(=O)c1cccc(-c2c(C#N)c3ccc(OC)cc3n2CC)c1` [Compound 292], the IC50 is more than 2 µM. As for `CCn1c(-c2cccc(NC(=O)Oc3ccccc3)c2)c(C#N)c2ccc(OC)cc21` [Compound 293], the IC50 was more than 2 µM. As to `CCCCOC(=O)Nc1cccc(-c2c(C#N)c3ccc(OC)cc3n2CC)c1` [Compound 300], the IC50 fell in the range of 0.5 to 2 µM.
